Data from ChEMBL document CHEMBL2203036, “Discovery of 1-[2-(2,4-dimethylphenylsulfanyl)phenyl]piperazine (Lu AA21004): a novel multimodal compound for the treatment of major depressive disorder” (J Med Chem, 2011).
The source made the active and inactive calls. No cut-off for these calls is given here.

What was measured:
[1] = molecular target: T1, 5-hydroxytryptamine receptor 3A (Homo sapiens, UniProt P46098); test: Antagonist activity at human 5HT3A receptor expressed in xenopus oocytes assessed as inhibition of 5HT-induced effect by electrophysiological method; format: functional, cell-based, Oocyte
T1 sequence (P46098 whole entry): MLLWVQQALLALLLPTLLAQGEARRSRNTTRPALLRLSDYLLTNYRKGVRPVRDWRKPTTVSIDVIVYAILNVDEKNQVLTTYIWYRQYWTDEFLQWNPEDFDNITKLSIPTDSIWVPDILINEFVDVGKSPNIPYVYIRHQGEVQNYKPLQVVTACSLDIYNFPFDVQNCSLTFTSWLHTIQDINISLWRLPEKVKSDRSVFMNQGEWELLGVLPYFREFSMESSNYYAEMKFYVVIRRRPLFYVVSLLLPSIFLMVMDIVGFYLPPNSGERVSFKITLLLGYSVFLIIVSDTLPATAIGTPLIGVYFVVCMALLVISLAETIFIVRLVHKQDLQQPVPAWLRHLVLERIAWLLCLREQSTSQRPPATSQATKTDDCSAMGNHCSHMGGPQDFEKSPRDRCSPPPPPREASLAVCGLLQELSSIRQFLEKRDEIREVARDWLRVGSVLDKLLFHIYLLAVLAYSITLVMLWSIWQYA

[2] = molecular target: Beta-1 adrenergic receptor (Homo sapiens, UniProt P08588); test: Binding affinity to human beta 1 adrenergic receptor
[3] = molecular target: Cytochrome P450 3A4 (Homo sapiens, UniProt P08684); test: Inhibition of human recombinant CYP3A4 using resorufin benzyl ether after 30 mins by fluorescence spectrophotometric analysis; format: ADME
[4] = Inhibition of NET-mediated [3H]NE in rat synaptosomes by scintillation counting; format: subcellular, Brain
[5] = molecular target: 5-hydroxytryptamine receptor 2C (Homo sapiens, UniProt P28335); test: Binding affinity to human 5HT2C receptor
[6] = Oral bioavailability in rat at 2 mg/kg; format: ADME, organism-based; settings: in vivo
[7] = test system: Rattus norvegicus; test: Antidepression activity in Harlan rat assessed as increase in extracellular 5HT level in medial prefrontal cortex region at 5 to 10 mg/kg, sc administered QD for 3 days by microdialysis method
[8] = test system: Rattus norvegicus; test: Hepatic clearance in rat at 1 mg/kg, iv; format: ADME, organism-based, Liver; set-up: dose 1 mg/kg, route intravenous; settings: in vivo
[9] = molecular target: 5-hydroxytryptamine receptor 3A (Rattus norvegicus) (UniProt P35563); test: Agonist activity at rat 5HT3A receptor expressed in xenopus oocytes at 0.1 to 100000 nM by electrophysiological method; settings: Oocyte
[10] = molecular target: Sodium-dependent serotonin transporter (Homo sapiens, UniProt P31645); test: Binding affinity to human SERT
[11] = molecular target: 5-hydroxytryptamine receptor 3A (Rattus norvegicus, UniProt P35563); test: Antagonist activity at rat 5HT3A receptor expressed in xenopus oocytes assessed as inhibition of 5HT-induced effect by electrophysiological method; format: functional, cell-based, Oocyte
[12] = molecular target: 5-hydroxytryptamine receptor 6 (Homo sapiens, UniProt P50406); test: Binding affinity to human 5HT6 receptor
[13] = test system: Rattus norvegicus; test: Antidepression activity in Harlan rat assessed as increase in extracellular 5HT level in ventral hippocampus region at 2.5 to 10 mg/kg, sc by microdialysis method; settings: TDE = time-dependent effect
[14] = molecular target: 5-hydroxytryptamine receptor 7 (Homo sapiens, UniProt P34969); test: Binding affinity to human 5HT7 receptor
[15] = molecular target: 5-hydroxytryptamine receptor 1B (Homo sapiens, UniProt P28222); test: Inhibition of human 5HT1B receptor at 1 uM
Sequence of 5-hydroxytryptamine receptor 1B (P28222 whole entry): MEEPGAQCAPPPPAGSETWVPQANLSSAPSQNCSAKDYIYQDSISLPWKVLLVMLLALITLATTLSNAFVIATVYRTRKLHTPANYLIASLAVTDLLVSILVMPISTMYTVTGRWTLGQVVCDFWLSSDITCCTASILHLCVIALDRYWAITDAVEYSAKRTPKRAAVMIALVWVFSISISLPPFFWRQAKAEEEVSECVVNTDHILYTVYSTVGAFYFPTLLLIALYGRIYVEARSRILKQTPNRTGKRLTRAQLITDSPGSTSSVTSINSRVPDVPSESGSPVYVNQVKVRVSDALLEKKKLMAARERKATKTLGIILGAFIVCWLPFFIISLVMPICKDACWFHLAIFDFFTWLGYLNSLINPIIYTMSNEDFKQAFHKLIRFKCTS

Sequence of 5-hydroxytryptamine receptor 7 (P34969 whole entry): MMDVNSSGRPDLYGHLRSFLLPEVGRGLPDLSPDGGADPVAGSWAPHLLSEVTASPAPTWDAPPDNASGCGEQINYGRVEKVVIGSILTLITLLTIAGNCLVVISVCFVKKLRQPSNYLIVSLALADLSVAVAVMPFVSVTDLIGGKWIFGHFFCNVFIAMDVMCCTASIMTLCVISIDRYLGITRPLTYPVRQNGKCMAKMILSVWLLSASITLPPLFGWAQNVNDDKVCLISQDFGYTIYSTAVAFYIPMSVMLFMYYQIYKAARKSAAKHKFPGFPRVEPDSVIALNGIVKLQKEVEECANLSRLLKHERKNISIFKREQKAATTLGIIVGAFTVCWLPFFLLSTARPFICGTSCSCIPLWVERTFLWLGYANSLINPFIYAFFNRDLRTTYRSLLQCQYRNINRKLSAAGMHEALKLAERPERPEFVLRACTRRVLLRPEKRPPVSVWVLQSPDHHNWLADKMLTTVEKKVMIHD
Sequence of Sodium-dependent serotonin transporter (P31645 whole entry): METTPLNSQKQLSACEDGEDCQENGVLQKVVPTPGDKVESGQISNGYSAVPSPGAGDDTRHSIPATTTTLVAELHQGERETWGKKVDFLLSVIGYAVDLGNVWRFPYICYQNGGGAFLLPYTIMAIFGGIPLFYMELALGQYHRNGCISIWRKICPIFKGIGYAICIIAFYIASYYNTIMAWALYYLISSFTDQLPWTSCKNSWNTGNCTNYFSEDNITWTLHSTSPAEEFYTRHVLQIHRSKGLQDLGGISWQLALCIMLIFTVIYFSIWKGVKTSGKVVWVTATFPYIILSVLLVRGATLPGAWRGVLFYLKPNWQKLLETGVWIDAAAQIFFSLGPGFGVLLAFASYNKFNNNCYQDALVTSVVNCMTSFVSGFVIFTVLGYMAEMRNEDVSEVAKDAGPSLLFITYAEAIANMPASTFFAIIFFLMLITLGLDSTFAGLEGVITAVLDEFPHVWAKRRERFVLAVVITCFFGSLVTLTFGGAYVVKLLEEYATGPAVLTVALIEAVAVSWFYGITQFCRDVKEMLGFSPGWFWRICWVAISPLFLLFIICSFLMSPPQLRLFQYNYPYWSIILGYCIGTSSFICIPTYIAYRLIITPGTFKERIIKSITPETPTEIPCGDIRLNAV
Sequence of Cytochrome P450 3A4 (P08684 whole entry): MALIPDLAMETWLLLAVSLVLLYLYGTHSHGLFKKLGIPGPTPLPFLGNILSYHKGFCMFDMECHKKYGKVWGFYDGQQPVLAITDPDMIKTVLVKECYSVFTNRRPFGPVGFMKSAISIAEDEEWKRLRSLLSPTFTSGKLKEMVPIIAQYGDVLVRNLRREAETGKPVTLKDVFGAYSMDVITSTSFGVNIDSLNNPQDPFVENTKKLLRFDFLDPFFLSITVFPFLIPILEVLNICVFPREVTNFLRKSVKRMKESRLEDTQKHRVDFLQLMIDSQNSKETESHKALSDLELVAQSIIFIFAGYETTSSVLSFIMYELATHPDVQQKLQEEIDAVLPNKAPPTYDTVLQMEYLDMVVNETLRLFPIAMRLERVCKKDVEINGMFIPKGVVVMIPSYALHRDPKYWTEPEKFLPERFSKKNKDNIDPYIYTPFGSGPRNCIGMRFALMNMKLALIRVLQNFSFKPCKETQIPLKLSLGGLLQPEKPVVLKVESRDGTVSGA
Sequence of 5-hydroxytryptamine receptor 6 (P50406 whole entry): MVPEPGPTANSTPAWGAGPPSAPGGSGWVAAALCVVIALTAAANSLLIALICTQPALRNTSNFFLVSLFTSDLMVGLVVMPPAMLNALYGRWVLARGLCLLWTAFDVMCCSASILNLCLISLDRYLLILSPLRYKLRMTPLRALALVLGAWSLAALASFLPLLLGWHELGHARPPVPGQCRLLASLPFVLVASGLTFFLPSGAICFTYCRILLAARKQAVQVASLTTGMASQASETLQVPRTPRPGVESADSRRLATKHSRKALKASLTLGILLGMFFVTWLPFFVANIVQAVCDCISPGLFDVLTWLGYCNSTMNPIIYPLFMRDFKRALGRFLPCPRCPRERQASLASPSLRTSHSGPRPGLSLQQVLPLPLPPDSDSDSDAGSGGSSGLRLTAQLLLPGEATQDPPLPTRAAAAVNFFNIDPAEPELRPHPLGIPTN
Sequence of Beta-1 adrenergic receptor (P08588 whole entry): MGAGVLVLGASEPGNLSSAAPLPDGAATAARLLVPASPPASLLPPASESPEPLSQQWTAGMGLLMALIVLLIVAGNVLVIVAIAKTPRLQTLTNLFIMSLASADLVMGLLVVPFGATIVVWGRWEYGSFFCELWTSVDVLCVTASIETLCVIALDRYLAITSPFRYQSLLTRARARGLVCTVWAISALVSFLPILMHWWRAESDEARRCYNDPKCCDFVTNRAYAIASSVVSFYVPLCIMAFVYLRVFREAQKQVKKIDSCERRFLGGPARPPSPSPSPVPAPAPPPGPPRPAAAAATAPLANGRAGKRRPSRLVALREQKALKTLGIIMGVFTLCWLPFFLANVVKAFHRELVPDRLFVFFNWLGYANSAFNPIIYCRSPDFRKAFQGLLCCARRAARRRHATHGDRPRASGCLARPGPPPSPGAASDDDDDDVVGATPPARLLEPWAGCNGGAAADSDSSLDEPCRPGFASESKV
Sequence of 5-hydroxytryptamine receptor 3A (Rattus norvegicus, UniProt P35563) (P35563 whole entry): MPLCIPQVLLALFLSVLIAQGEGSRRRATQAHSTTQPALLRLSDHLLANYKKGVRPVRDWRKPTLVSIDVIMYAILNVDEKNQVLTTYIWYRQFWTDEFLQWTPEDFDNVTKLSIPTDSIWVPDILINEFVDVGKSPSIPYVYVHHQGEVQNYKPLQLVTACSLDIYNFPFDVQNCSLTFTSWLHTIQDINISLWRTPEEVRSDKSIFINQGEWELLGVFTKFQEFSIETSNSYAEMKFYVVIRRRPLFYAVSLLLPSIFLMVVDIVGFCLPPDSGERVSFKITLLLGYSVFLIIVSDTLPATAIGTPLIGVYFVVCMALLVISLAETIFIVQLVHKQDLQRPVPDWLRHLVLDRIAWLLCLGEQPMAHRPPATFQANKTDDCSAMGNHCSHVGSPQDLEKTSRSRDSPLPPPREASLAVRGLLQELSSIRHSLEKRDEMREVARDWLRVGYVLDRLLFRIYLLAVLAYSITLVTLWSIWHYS
Sequence of 5-hydroxytryptamine receptor 3A (Rattus norvegicus) (P35563 whole entry): as above
Sequence of 5-hydroxytryptamine receptor 2C (P28335 whole entry): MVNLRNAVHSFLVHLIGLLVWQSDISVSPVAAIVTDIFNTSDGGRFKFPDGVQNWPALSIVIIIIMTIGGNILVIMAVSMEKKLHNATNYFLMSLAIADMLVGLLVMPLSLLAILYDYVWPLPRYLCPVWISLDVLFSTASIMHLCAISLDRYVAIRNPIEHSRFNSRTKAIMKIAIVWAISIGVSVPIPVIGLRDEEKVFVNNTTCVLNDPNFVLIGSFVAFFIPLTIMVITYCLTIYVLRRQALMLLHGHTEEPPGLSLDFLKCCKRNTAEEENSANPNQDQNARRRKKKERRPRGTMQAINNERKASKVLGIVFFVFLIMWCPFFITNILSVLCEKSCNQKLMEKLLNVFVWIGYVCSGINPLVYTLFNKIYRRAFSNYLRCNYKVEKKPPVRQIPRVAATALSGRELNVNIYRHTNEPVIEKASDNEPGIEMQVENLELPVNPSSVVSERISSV

Compound: Cc1ccc(Sc2ccccc2N2CCNCC2)c(C)c1.Cl
- IC50 [1]: 0.012 µM
- Ki [2]: 0.046 µM
- IC50 [3]: 10 µM
- IC50 [4]: 0.14 µM
- Ki [5]: 0.18 µM
- bioavailability [6]: 16%
- Activity [7]: Active
- CLH [8]: 7.1 L/h/kg
- Activity [9]: inactive
- Ki [10]: 0.0016 µM
- IC50 [11]: 0.00018 µM
- Ki [12]: 0.33 µM
- Activity [13]: tde
- Ki [14]: 0.019 µM
- inhibition [15]: 100%
